Source: PMC5375023 (Neurochemistry international, 2017)
Like-named read-outs stand apart in the source and are kept apart here.

Assays:
[1] = tested on: BDNF mRNA in CCF-STTG1 cells; assay: qPCR of BDNF steady-state mRNA; assay type: cell-based, human; conditions: 3 hr
[2] = tested on: U87MG cells; assay: BDNF secretion by in situ ELISA, U87MG; conditions: 72 hrs treatment
[3] = tested on: CCF-STTG1 cells; assay: BDNF secretion by in situ ELISA, CCF-STTG1; conditions: for BDNF secretion from CCF-STTG1 cells, compound alone: 72 hrs treatment
[4] = tested on: BV-2 cells; assay: BDNF secretion by in situ ELISA, BV-2; assay type: cell-based, murine; conditions: 10 μM
[5] = target: T1, human S1R (Homo sapiens, UniProt Q99720); assay: Competition binding with [3H]-
[6] = target: human S2R (Homo sapiens, UniProt Q5BJF2); assay: Competition binding with [3H]DTG at S2R in untransfected MCF-7 cells; conditions: for IC50: read-out: IC50 at S2R; for IC50 / Ki: MCF-7, ± SEM; for Ki: read-out: Ki at S2R
[7] = tested on: EP2R; conditions: 10 μM; ref af Forselles et al., 2011; cited from earlier work
[8] = target: T1, human S1R; conditions: ref Lee et al., 2008, cited from earlier work
[9] = tested on: ischemic stroke; conditions: acute low dose 0.05 mg/kg, s.c., rats; ref Schetz et al., 2007; cited from earlier work
[10] = 15 nM, Fractional Occupancy = [ligand]/([ligand]+Ki)

Sequence of human S2R (Q5BJF2 whole entry): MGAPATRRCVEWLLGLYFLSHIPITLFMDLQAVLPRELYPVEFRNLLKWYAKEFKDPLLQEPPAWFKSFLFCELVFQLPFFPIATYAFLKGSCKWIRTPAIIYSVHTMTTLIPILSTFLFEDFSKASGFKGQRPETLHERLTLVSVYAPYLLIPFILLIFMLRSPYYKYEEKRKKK
T1 sequence (Q99720 whole entry): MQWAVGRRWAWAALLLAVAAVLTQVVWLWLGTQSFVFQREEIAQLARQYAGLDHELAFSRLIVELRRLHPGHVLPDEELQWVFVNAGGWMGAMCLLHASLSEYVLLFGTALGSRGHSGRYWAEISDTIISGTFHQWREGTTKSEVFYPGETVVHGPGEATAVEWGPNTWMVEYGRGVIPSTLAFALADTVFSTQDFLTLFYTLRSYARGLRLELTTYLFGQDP

Compound: OC(CCCN1CCC(O)(c2ccc(Cl)cc2)CC1)c1ccc(F)cc1 (racemic) [reduced haloperidol, (±)-4-(4-Chlorophenyl)-α-(4-fluorophenyl)-4-hydroxy-1-piperidinebutanol]
- effect on BDNF mRNA levels ([1]; 10 μM): no effect on BDNF mRNA levels
- BDNF secretion from U87MG cells, compound alone [2]: facilitated BDNF secretion
- BDNF secretion from CCF-STTG1 cells, compound alone [3]: facilitated BDNF secretion

Compound: c1ccc(CCCCN2CCC(c3ccccc3)CC2)cc1 [4-PPBP]
- BDNF secretion from BV-2 cells, compound alone [4]: failed to significantly stimulate the secretion of detectable levels of BDNF
- BDNF signal above DMSO vehicle ([4]; BV-2 cells, P = 0.4): 1.1 ± 0.06 fold
- effect on BDNF mRNA levels ([1]; 10 μM): no effect on BDNF mRNA levels
- BDNF secretion from CCF-STTG1 cells, compound alone [3]: facilitated BDNF secretion

Compound: CN1CCN(CCc2ccc(Cl)c(Cl)c2)CC1 [BD1063]
- expected S1R occupancy ([5]; 2 nM): 27%
- calculated S1R occupancy [5, 10]: 74%
- Ki(S2R)/Ki(S1R) selectivity ([5]; S1R over S2R): 37 fold
- IC50 ([5]; read-out: IC50 at S1R, [3H]-(+)-pentazocine, MCF-7-S1R, ± SEM): 0.0065 ± 0.00087 µM
- Ki ([5]; read-out: Ki at S1R, [3H]-(+)-pentazocine, MCF-7-S1R, ± SEM): 0.0053 ± 0.00071 µM
- calculated S2R occupancy [6, 10]: 7%
- IC50 ([6]; [3H]-DTG): 0.208 ± 0.03 µM
- Ki ([6]; [3H]-DTG): 0.194 ± 0.028 µM
- BDNF secretion from CCF-STTG1 cells, compound alone [3]: no effect on its own
- effect on PGE2-stimulated BDNF response mediated by EP2R ([3]; S1R-selective dose of BD1063): does not modify the PGE2 stimulated response
- effect on BDNF secretion produced by S1R agonists 4-PPBP and (+)-SKF10047 ([3]; antagonist 15 nM): significantly reduced BDNF secretion
- effect on BDNF secretion produced by haloperidol metabolites I and II ([3]; antagonist BD1063 co-applied): significantly diminished BDNF secretion

Compound: C=C[C@@]1(C)CC(=O)[C@]2(O)[C@@]3(C)[C@@H](O)CCC(C)(C)[C@@H]3[C@H](O)[C@H](OC(C)=O)[C@@]2(C)O1 [Forskolin]
- increase in BDNF mRNA levels ([1]; 100 μM forskolin + 100 μM IBMX, normalized to vehicle): > 3 fold

Compound: CC(C)Cn1c(=O)n(C)c(=O)c2[nH]cnc21 [IBMX]
- effect on BDNF mRNA levels ([1]; 100 μM): no effect on BDNF mRNA levels

Compound: CCCN(CCC)CCc1ccc(OC)c(OCCc2ccccc2)c1 [NE100]
- IC50 ([6]; [3H]-DTG): 0.046 ± 0.0064 µM
- Ki ([6]; [3H]-DTG): 0.043 ± 0.006 µM

Compound: COc1ccc2cc(OCC3(C(=O)O)CN(C(=O)c4ccc(F)cc4)C3)ccc2c1 [PF-04418948]
- EP2 receptor occupancy [7]: 99.9%
- BDNF secretion from CCF-STTG1 cells, compound alone [3]: no effect by itself
- effect on PGE2-stimulated BDNF secretion ([3]; antagonist 10 μM vs PGE2): blocked the stimulatory effect of PGE2

Compound: CCCCC[C@H](O)/C=C/[C@H]1[C@H](O)CC(=O)[C@@H]1C/C=C\CCCC(=O)O [PGE2, Prostaglandin E2]
- displacement of specifically bound radioligand from S1R ([5]; 10 μM, [3H]-(+)-pentazocine): unable to displace
- displacement of specifically bound radioligand from S2R ([6]; 10 μM, [3H]-DTG): unable to displace
- secreted BDNF, maximal stimulation ([3]; 10 μM, ± SEM, n = 6 experiments, baseline 75.4 ± 6.9): 128.6 ± 12.8 pg/mL
- BDNF secretion from CCF-STTG1 cells, compound alone [3]: secreted BDNF in a concentration-dependent manner

Compound: CN1CCN(C2=Nc3cc(Cl)ccc3Nc3ccccc32)CC1 [clozapine]
- affinity for the S1R, in words [8]: essentially no affinity

Compound: OC1(c2ccc(Cl)cc2)CCNCC1 [haloperidol metabolite I, 4-(4-Chlorophenyl)-4-hydroxypiperidine]
- effect on BDNF mRNA levels ([1]; 100 μM): no effect on BDNF mRNA levels
- Ki ([8]; read-out: affinity (Ki) for the S1R): 0.128 µM
- fold lower affinity for the S1R than haloperidol and reduced haloperidol [8]: > 75 fold
- BDNF secretion from U87MG cells, compound alone [2]: facilitated BDNF secretion
- BDNF secretion from CCF-STTG1 cells, compound alone [3]: facilitated BDNF secretion

Compound: O=C(O)CCC(=O)c1ccc(F)cc1 [haloperidol metabolite III, 3-(4-Fluorobenzoyl)propionic acid]
- affinity for the S1R, in words [8]: essentially no detectable affinity

Compound: O=C(CCCN1CCC(O)(c2ccc(Cl)cc2)CC1)c1ccc(F)cc1 [haloperidol, Haloperidol]
- protection against ischemic stroke [9]: protected rats against an ischemic stroke
- BDNF secretion from U87MG cells, compound alone [2]: but not haloperidol, facilitated BDNF secretion
- BDNF secretion from CCF-STTG1 cells, compound alone [3]: but not haloperidol, facilitated BDNF secretion

Compound: (+)-SKF10047
- BDNF secretion from CCF-STTG1 cells, compound alone [3]: facilitated BDNF secretion
